Measured values reported in patent publication US5510469A, “2-acyloxy-4-morpholinyl anthracyclines” (priority 1990, dated 1996).
In brackets after ≈: the same amount, converted by molar mass. Read-outs that look alike come from different tables or passages of the source.

Assays:
[1] = system: P388/DX (Johnson) Leukemias; test: Antitumor activity in vivo against P388 murine leukemia resistant to Doxorubicin (P388/DX, Johnson); conditions: P388/DX 10^5 cells/mouse i.v. in CDF mice; treatment on day 1; at optimal dose: 1a 1.2 mg/kg, Doxorubicin 13-16.9 mg/kg
Method: Antitumor activity against P388/DX
^(1) 10^5 cells/mouse (P388/DX, Johnson) transplanted i.v. in CDF
Treatment on day 1 after inoculation of tumor.
^(3) Median survival time; % over […] controls.
Compound 1a was evaluated "in vivo" against P388 murine Leukemias resistant to Doxorubicin, in comparison with Doxorubicin.

LoVo/DX cells = test: Colony assay (cytotoxicity after 4 hr treatment), LoVo-resistant-doxorubicin (LoVo/DX) cells; format: cell-based; conditions: for IC50: read-out: IC50 (concentration inhibiting 50% colony growth), LoVo/DX; for R.I. = Resistance Index = (IC50 LoVo/DX)/(IC50 LoVo): ratio LoVo/DX to LoVo
Method: (§1) 3'-deamino-3' 2-benzoyl-4-morpholinyl!doxorubicin (1a) was tested "in vitro" against LoVo and LoVo-resistant-doxorubicin (LoVo/DX) cells using a single cell plating technique after 4 hr treatment (Colony assay). The 50% inhibition concentration (IC50) was calculated using concentration-response curves. Compound 1a was tested in comparison with Doxorubicin.
(§2) Cytotoxicity after 4 hr treatment IC50 = ng/ml^(1)
(§3) ^(1) IC50 = concentration inhibiting 50% colony growth
^(2) R.I. = Resistance Index = (IC50 LoVo/DX)/(IC50 LoVo)

LoVo cells = test: Colony assay (cytotoxicity after 4 hr treatment), LoVo cells; format: cell-based; conditions: Homo sapiens, read-out: IC50 (concentration inhibiting 50% colony growth), LoVo
Method: as §1, §2, §3

SMILES | T/C % (median survival time; % over treated controls) [1] | IC50 (LoVo/DX cells; LoVo/DX, 4 h) | R.I. = Resistance Index = (IC50 LoVo/DX)/(IC50 LoVo) (LoVo/DX cells; 4 hr treatment) | IC50 (LoVo cells; LoVo, 4 h) | IC50 (LoVo/DX cells; LoVo/DX cells, 4 hr treatment, colony assay) | IC50 (LoVo cells; LoVo cells, 4 hr treatment, colony assay)
COc1cccc2c1C(=O)c1c(O)c3c(c(O)c1C2=O)C[C@@](O)(C(=O)CO)C[C@@H]3O[C@H]1C[C@H](N2CCOC(OC(=O)c3ccccc3)C2)[C@H](O)[C@H](C)O1 (some centres unmarked) [Compound 1a] | 175% | 0.027 mg/L (≈ 0.0368 µM) | 3.9 | 0.0069 mg/L (≈ 0.0094 µM) |  | 
COc1cccc2c1C(=O)c1c(O)c3c(c(O)c1C2=O)C[C@@](O)(C(=O)CO)C[C@@H]3O[C@H]1C[C@H](N)[C@H](O)[C@H](C)O1 [Doxorubicin, doxorubicin] | 86-100% |  | 36 |  | 2.16 mg/L (≈ 3.97 µM) | 0.06 mg/L (≈ 0.11 µM)
